Laboratory results taken from US20230398130A1, “METHODS AND COMPOSITIONS FOR DIFFERENTIATING STEM CELLS” (Massachusetts Institute of Technology, priority 2020, published 2023).

Columns and labels:
ISC-enriched organoids [1] = assay: Primary screen, 384-well 2.5-D organoid differentiation (ENR+CD, 6 days): basal lysozyme secretion (LYZ.NS); format: cell-based, murine; settings: primary screen; for Dose.FC.LYZ.NS: FC vs plate median; for Z.LYZ.NS: standard z score
Excerpt: (§1) High-throughput screening.

ISC-enriched organoids [2] = assay: Primary screen, 384-well 2.5-D organoid differentiation (ENR+CD, 6 days): carbachol-induced lysozyme secretion (LYZ.S); format: cell-based, murine; settings: primary screen, FC vs plate median
Excerpt: as §1

ISC-enriched organoids [3] = assay: Primary screen, 384-well 2.5-D organoid differentiation (ENR+CD, 6 days, Target Selective Inhibitor Library, vs whole-plate median): ATP (CellTiter-Glo 3D, CTG); settings: primary screen; for Dose.FC.CTG: FC vs plate median; for Z.CTG: standard z score

Compound	Dose.FC.LYZ.NS (ISC-enriched organoids [1]; Dose 0.08 uM) [log 2 fold change]	Z.LYZ.NS (ISC-enriched organoids [1]; Dose 0.08 uM)	Dose.FC.LYZ.NS (ISC-enriched organoids [1]; Dose 0.40 uM) [log 2 fold change]	Z.LYZ.NS (ISC-enriched organoids [1]; Dose 0.40 uM)	Dose.FC.LYZ.NS (ISC-enriched organoids [1]; Dose 2.00 uM) [log 2 fold change]	Z.LYZ.NS (ISC-enriched organoids [1]; Dose 2.00 uM)	Dose.FC.LYZ.NS (ISC-enriched organoids [1]; Dose 10.00 uM) [log 2 fold change]	Z.LYZ.NS (ISC-enriched organoids [1]; Dose 10.00 uM)	Dose.FC.LYZ.S (ISC-enriched organoids [2]; Dose 0.08 uM) [log 2 fold change]	Dose.FC.LYZ.S (ISC-enriched organoids [2]; Dose 0.40 uM) [log 2 fold change]	Dose.FC.LYZ.S (ISC-enriched organoids [2]; Dose 2.00 uM) [log 2 fold change]	Dose.FC.LYZ.S (ISC-enriched organoids [2]; Dose 10.00 uM) [log 2 fold change]	Dose.FC.CTG (ISC-enriched organoids [3]; Dose 0.08 uM) [log 2 fold change]	Z.CTG (ISC-enriched organoids [3]; Dose 0.08 uM)	Dose.FC.CTG (ISC-enriched organoids [3]; Dose 0.40 uM) [log 2 fold change]	Z.CTG (ISC-enriched organoids [3]; Dose 0.40 uM)	Dose.FC.CTG (ISC-enriched organoids [3]; Dose 2.00 uM) [log 2 fold change]	Z.CTG (ISC-enriched organoids [3]; Dose 2.00 uM)	Dose.FC.CTG (ISC-enriched organoids [3]; Dose 10.00 uM) [log 2 fold change]	Z.CTG (ISC-enriched organoids [3]; Dose 10.00 uM)
CCc1cc(Nc2nccc(-c3c(-c4ccc(OC)c(C(=O)Nc5c(F)cccc5F)c4)nc4ccccn34)n2)c(OC)cc1N1CCC(N2CCN(S(C)(=O)=O)CC2)CC1 [GSK1904529A]	0.102	0.890	0.112	0.977	−0.179	−1.557	−0.163	−1.419	0.133	−0.047	−0.225	−0.276	0.202	0.484	−0.071	−0.170	−0.570	−1.361	−0.691	−1.649
Cc1cccc(CC(=O)N2CCc3c2ccc(-c2cn(C)c4ncnc(N)c24)c3F)n1 [GSK2656157]	−0.031	−0.267	−0.045	−0.396	−0.033	−0.291	−0.012	−0.102	−0.008	0.060	−0.020	0.090	0.068	0.162	0.115	0.274	0.083	0.197	0.119	0.284
CCOC(=O)CCNc1cc(N2CCc3ccccc3CC2)nc(-c2ccccn2)n1.Cl [GSK J4 HCl]	0.058	0.508	0.050	0.433	0.018	0.153	−0.001	−0.006	0.086	0.109	0.041	−0.002	0.124	0.297	0.099	0.237	0.002	0.006	0.233	0.558
Cc1cc(SCc2sc(-c3ccc(C(F)(F)F)c(F)c3)nc2C)ccc1OCC(=O)O [GW0742]	0.052	0.454	0.045	0.390	0.026	0.231	−0.152	−1.322	0.048	0.106	0.014	−0.183	−0.751	−1.794	−0.489	−1.167	−0.249	−0.596	−0.451	−1.078
COc1ccc(COc2ccc(Cc3cnc(N)nc3N)cc2OC)cc1 [GW2580]	0.006	0.056	0.014	0.118	−0.060	−0.525	−0.018	−0.158	−0.013	0.020	−0.060	−0.026	−0.042	−0.101	−0.284	−0.678	0.029	0.068	−0.038	−0.091
Cl.O=C(O)Cc1cccc(OCCCN(Cc2cccc(C(F)(F)F)c2Cl)CC(c2ccccc2)c2ccccc2)c1 [GW3965 HCl]	0.059	0.516	0.002	0.013	0.077	0.673	−0.009	−0.080	0.091	0.074	0.179	−0.047	0.138	0.330	0.201	0.481	0.229	0.546	−0.078	−0.186
CC(C)c1onc(-c2c(Cl)cccc2Cl)c1COc1ccc(/C=C/c2cccc(C(=O)O)c2)c(Cl)c1 [GW4064]	0.170	1.476	−0.022	−0.194	0.022	0.196	−0.059	−0.516	0.028	0.097	0.000	−0.071	−0.134	−0.320	0.140	0.334	−0.145	−0.346	−0.157	−0.375
